A short description of this series: gradient 5% acetonitrile 3 min, to 50% in 2 min, to 85% in 15 min, held 3 min, 100 µL/min. Conditions: column: Zorbax Extend-C18 2.1 x 50 mm; eluents: water / acetonitrile, 0.1% formic acid. In short, it runs like this:
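Retention times of pure standards were taken from adduct peaks that were selected by computer and manually inspected. Over 3 months, mixtures of ~100 molecules were run by HPLC–quadrupole time-of-flight mass spectrometry in positive and negative ionization mode. The Zorbax Extend-C18 column (2.1 × 50 mm, 1.8 μm) ran at 100 μL/min in water and acetonitrile, each containing 0.1% formic acid, with 40 μL dead volume and 900 μL dwell volume.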
In turn, `COc1ccc(CNC(=O)CSc2nccc(N3CCN(c4cc(C)ccc4C)CC3)n2)cc1` displayed an RP-LC retention time of 861 s. As for `COc1ccc(-c2nc(Cn3ccn4nc(-c5ccc6c(c5)OCO6)cc4c3=O)c(C)o2)cc1`, the RP-LC retention time was 1100 s. With `CCOC(=O)c1cnc(Nc2nc(C)c3cc(C)cc(C)c3n2)nc1C`, the RP-LC retention time stood at 657 s. As for `O=C(C1=CN(c2ccc3c(c2)OCCO3)c2cc(F)ccc2S1(=O)=O)N1CCCC1`, the RP-LC retention time worked out at 735 s. Next, `O=C(CN1C(=O)CCC1=O)N1CCC(c2noc(-c3ccccn3)n2)C1` (stereo not drawn): 608 s. `Cc1ccc(NC(=O)N2CCC(n3cnc4cc(F)ccc4c3=O)CC2)c(C)c1` returned an RP-LC retention time of 811 s. Then `CC(C)CCC(=O)N1CCC(N2C[C@H](O)C[C@H]2C(N)=O)CC1`, with 571 s.

On to `CCS(=O)(=O)N1CCc2c(c(CN(C(=O)c3ccccc3F)c3ccccc3)nn2C)C1`, for which the RP-LC retention time was determined as 774 s. Consider `Cc1c2cnn(-c3ccccc3)c(=O)c2c(C)n1C(C)C(=O)NCCN1CCOCC1` (stereo not drawn), for which the RP-LC retention time amounted to 607 s. Regarding `CC(=O)Nc1ccc2c(c1)CN(C(=O)c1c(F)cccc1Cl)C(C(=O)N(C)C)C2` (stereo not drawn), the RP-LC retention time came out at 900 s. As for `CCC(CC)NC(=O)C1CCN(c2cn[nH]c(=O)c2)CC1`, the RP-LC retention time stood at 604 s. In the case of `CCOc1ccc(OC(=O)C2CCN(c3nc4ccccc4[nH]3)CC2)cc1`, the RP-LC retention time was 712 s. Take `CC(C)N1C(=O)C(CC(=O)Nc2cccc(OC(F)(F)F)c2)=C2CCCCC21` (stereo not drawn): the RP-LC retention time is 1080 s. Then `O=C(NC1CCCC1)c1ccc2c(c1)nc1n2CCN(C2CCCCC2)C1=O`, with 763 s; and `Cc1ccc(NC(=O)CN2C(=O)COc3ccc(C(=O)N4CCCC4)cc32)nc1`, with 625 s; and `CCn1c(N2CCCC(C(=O)NCCOC)C2)cc(=O)n(C)c1=O` (stereo not drawn), with 646 s. Compound `CC1CCN(c2ncc3c(n2)CCC(C(=O)Nc2ccc(N4CCOCC4)cc2)C3)CC1` (stereo not drawn) yielded an RP-LC retention time of 721 s.

The compound `CN1[C@@H]2CC(OC(=O)[C@H](CO)c3ccccc3)C[C@H]1[C@@H]1O[C@@H]12` (stereo partly drawn) yielded an RP-LC retention time of 619 s.

`CCCCN1C(=O)C(CC(=O)NCCC)Sc2ncccc21` (stereo not drawn) gave an RP-LC retention time of 750 s. On to `CCOC(=O)C1=C(CN2CCOCC2)NC(=O)NC1c1ccc(OC(C)C)cc1` (stereo not drawn), for which the RP-LC retention time turned out to be 628 s. `CCCSc1nc2c(c(=O)n(C)c(=O)n2C)n1C`: the RP-LC retention time stood at 837 s. In the case of `CC(C)c1noc(C2CCCN(S(=O)(=O)c3cccs3)CCC(=O)NCC2)n1` (stereo not drawn), the RP-LC retention time was 787 s. Next, `Cc1ccccc1NC(=O)Nc1cccnc1N(C)C`: 590 s; `O=C(Nc1ccc(N2CCOCC2)cc1)C1CN(S(=O)(=O)C2CC2)CC12CCCCC2` (stereo not drawn): 812 s; `O=[N+]([O-])c1ccc(CSc2ncnc3c2ncn3[C@@H]2O[C@H](CO)[C@H](O)C2O)cc1` (stereo partly drawn): 759 s. `CN(C)c1ccc(-c2nc3cnccn3c2Nc2ccc(Br)cc2)cc1` displayed an RP-LC retention time of 894 s. Then `Cc1ccc(C)c(N2C(=O)CN(S(C)(=O)=O)CC2(C)C(=O)NCc2ccc(Cl)cc2)c1` (stereo not drawn), with 889 s; and `CC1=C(c2ccc(Cl)cc2)S(=O)(=O)N=C1N1CCCN(C(=O)NCC(C)C)CC1`, with 845 s; and `Cc1c(F)cccc1NC(=O)N(C)CC1CCOC1` (stereo not drawn), with 745 s. As to `CCOC(=O)C1C(=O)C=C(c2cccs2)CC1c1ccc(OCC)cc1` (stereo not drawn), the RP-LC retention time was 1060 s.

Compound `Cc1ccc(-c2ccc(=O)n(C(C)C(=O)O)n2)cc1` (stereo not drawn) showed an RP-LC retention time of 684 s. `CCc1nc2cccnc2n1CCN1CCN(C(=O)Nc2ccc3c(c2)OCCO3)CC1` gave an RP-LC retention time of 590 s. Consider `CCCCN1C(=O)CN(S(=O)(=O)c2ccccc2)CC1(C)C(=O)NCc1ccc(C)cc1` (stereo not drawn), for which the RP-LC retention time amounted to 805 s. Compound `COc1ccc2c(c1)C1(CCN(C(=O)Cc3cccc(F)c3)C1)C(=O)N2C` (stereo not drawn) had an RP-LC retention time of 788 s. The compound `CC1(C(=O)NCc2ccc(F)cc2)CCCN(C(=O)Nc2ccccc2Br)C1` (stereo not drawn) displayed an RP-LC retention time of 955 s. Compound `COc1cccc(NC(=O)N2CCCC2c2nc(-c3ccccc3OC)no2)c1` (stereo not drawn) gave an RP-LC retention time of 843 s. `Cc1cccc2nnc(N3CCC(C(=O)NCc4ccc(N5CCCCC5)cc4)CC3)n12`: the RP-LC retention time came to 558 s. Then `Cc1noc(CNC(=O)c2ccc(OCc3nc(-c4ccco4)cs3)cc2)n1`, with 758 s.

The compound `c1ccc(-c2nc3ncc4c(n3n2)CCCCC4)cc1` showed an RP-LC retention time of 892 s.

For the compound `C[C@@H]1CCNC(=O)c2cc3ccc(C(=O)Nc4nc5ccccc5n4CCCN(C)C)cc3n21`, the RP-LC retention time turned out to be 642 s.

Compound `CCOC(=O)c1c(C)[nH]c(C(=O)N2CCCC(C(=O)NCc3ccc(F)cc3)C2)c1C` (stereo not drawn) returned an RP-LC retention time of 803 s.

In turn, `CCC(=O)N1CCN(c2nc3c(s2)CC(C(=O)NCc2cc(F)ccc2F)CC3)CC1` (stereo not drawn) displayed an RP-LC retention time of 601 s. Compound `CCC1c2nccn2CCCN1C(=O)c1ccc2c(c1)OCO2` (stereo not drawn) came in with an RP-LC retention time of 593 s. As for `Cc1ccc(-c2csc(-n3nc(C)c(CC(=O)N4CCCC4)c3C)n2)cc1`, the RP-LC retention time came out at 1090 s. Next, `NC(=O)Nc1cc(-c2cccc(F)c2)sc1C(=O)N[C@H]1CCCNC1`: 650 s. Then `COc1ccc(CN2C=C(C(=O)OCc3ccccc3Cl)C(C)=NS2(=O)=O)cc1`, with 1170 s. Regarding `Cn1nc(C(F)(F)F)cc1C(=O)N1CCCC1c1ccccc1Cl` (stereo not drawn), the RP-LC retention time was 1030 s. `CC(=O)OC1CCN(C(=O)NC(C)C)CC1` had an RP-LC retention time of 621 s. `Cc1ccc(-c2ncccc2CNS(=O)(=O)c2ccc(C)cc2)cc1` registered an RP-LC retention time of 684 s. In turn, `COc1cc(-c2noc(-c3nc(-c4ccc(C)cc4)no3)n2)cc(OC)c1OC` gave an RP-LC retention time of 1260 s.

On to `CC1(C(=O)NCc2ccccc2)CCN(C(=O)Nc2cccc(C(F)(F)F)c2)CC1`, for which the RP-LC retention time worked out at 919 s. In turn, `O=S(=O)(c1ccc2c(c1)CCC2)N1CCC(Cc2nc(-c3ccncc3)n[nH]2)C1` (stereo not drawn) showed an RP-LC retention time of 662 s. `CCOc1ccc(NC(=O)C(C)C2CCN(C(=O)Nc3ccc(Cl)cc3)CC2)cc1` (stereo not drawn): the RP-LC retention time was found to be 942 s. Next, `O=C(Nc1ccc2c(c1)OCCO2)C1CCCN(c2ncnc3c2nc2n3CCCCC2)C1` (stereo not drawn): 750 s; `Cc1noc(-c2cccc(OC3CN(C(=O)NCc4ccccc4)C3)c2)n1`: 830 s. Then `COc1ccc(-c2noc(Cc3nnc(-c4cccc(Cl)c4)o3)n2)cc1OC`, with 973 s. On to `O=C(c1cc(S(=O)(=O)N2CCCC(C(=O)N3CCCCCC3)C2)c[nH]1)N1CCCC1` (stereo not drawn), for which the RP-LC retention time stood at 729 s. The compound `COc1ccc(-c2nnc(-c3cc(S(=O)(=O)NCc4cccnc4)ccc3Cl)o2)cc1` had an RP-LC retention time of 696 s.

`CN1CC[C@@]23CCCC[C@@H]2[C@@H]1Cc1ccc(O)cc13`: the RP-LC retention time is 644 s. Regarding `Cc1cc(-c2nnc(-c3ccccc3)o2)c(C)n1CC(=O)Nc1ccc(F)c(F)c1`, the RP-LC retention time was 1010 s. The compound `Cc1cccc(CNC(=O)c2ncn3c2C(=O)N(C2CC2)C(C)(C(=O)NC2CCCC2)C3)c1` (stereo not drawn) displayed an RP-LC retention time of 784 s. In turn, `O=C(NCCC1=CCCCC1)C(=O)NCC(O)c1ccc(C(F)(F)F)cc1` (stereo not drawn) registered an RP-LC retention time of 949 s. With `COCCC(=O)N1CCC(Oc2nccnc2N2CCOCC2)C1` (stereo not drawn), the RP-LC retention time was 613 s. For the compound `CCN(C(=O)Cn1ccn2nc(-c3ccccc3)c(CO)c2c1=O)c1ccccc1`, the RP-LC retention time came to 838 s.

Turning to `COC(=O)N1CCc2ccc(F)cc2C1C(=O)Nc1ncc(C)s1` (stereo not drawn), the RP-LC retention time is 788 s. With `C[C@H]1CCCC(=O)CCC/C=C/c2c(O)cc(O)cc2C(=O)O1`, the RP-LC retention time came out at 888 s. Then `Cc1ccc(CNS(=O)(=O)c2cc3n(c2)CCCNC3=O)cc1`, with 658 s; and `O=C(NC1CCN(c2cc(-c3ccccc3)[nH]n2)CC1)c1ccc(Cl)s1`, with 838 s. In turn, `COC(=O)c1c(C)[nH]c(C(=O)N2CCC(CC(=O)NC3CCCCC3)CC2)c1C` registered an RP-LC retention time of 730 s. In the case of `CCCN1CCN(C(=O)c2c(C)sc3ccn(CC(C)C)c(=O)c23)CC1`, the RP-LC retention time amounted to 618 s. The compound `O=C(NCCN1CCN(C(=O)c2cc(=O)c3ccccc3o2)CC1)c1ccsc1` displayed an RP-LC retention time of 557 s. For the compound `O=C(CCc1c(-c2ccc(F)cc2)nc2ccccn12)NCc1ccccc1Cl`, the RP-LC retention time was found to be 779 s. Next, `CCc1nnc([C@@H]2CC(F)(F)CN2C(=O)c2noc(C)c2COC)o1`: 752 s. `Cc1cc(N2CCN(C)CC2)nc2ccc(NC(=O)Nc3cccc(Cl)c3)cc12` registered an RP-LC retention time of 590 s. Take `O=C(C1CC1)N1[C@H]2CC[C@@H]1c1cnc(-c3ccccc3)nc1C2`: the RP-LC retention time came out at 817 s. In the case of `CC(C)C[C@H]1C(=O)N2CCC[C@H]2[C@]2(O)O[C@](NC(=O)[C@@H]3C=C4c5cccc6[nH]c(Br)c(c56)CC4N(C)C3)(C(C)C)C(=O)N12` (stereo partly drawn), the RP-LC retention time came out at 830 s. `O=C(CCCSc1ccc(NC(=O)c2ccc(F)cc2)nn1)Nc1cccnc1` yielded an RP-LC retention time of 586 s. As to `O=c1c2sccc2n(Cc2nc(-c3ccc(F)cc3)no2)c(=O)n1-c1cccc(F)c1`, the RP-LC retention time was 970 s.

(Values after the METLIN SMRT retention time set (Domingo-Almenara et al. 2019).)
